Results on nine compounds are retold here after patent publication US5461154A, “Intermediate and process for making” (Eli Lilly and Company, priority 1994, dated 1995).

pIC50: −log10 of the molar value. Like-named read-outs stand apart in the source and are kept apart here.

The experiment addresses T1, HIV-1 protease (Human immunodeficiency virus type 1 group M subtype B, UniProt P04585).
T1 construct: Purified HIV-1 protease was obtained as described above; made in house; host or cells: E. coli K12 L507/pHP10D (NRRL B-18560)
Kind of experiment: biochemical. Particulars: for IC50: read-out: Fluorescence Assay IC50 (converted). As for the experimental part: A culture of E. coli K12 L507/pHP10D was grown to mid-log phase at 32° C. in LB media containing 12.5 μg/mL tetracycline. The cultivation temperature was quickly elevated to 40° C. to induce gene expression, and the cells were allowed to grow for 2.5 hours at this temperature before the culture was quickly chilled on ice. The cells were centrifuged and the cell pellet was resuspended in 20 mL of 50 mmol MES buffer (pH 6.0) containing 1 mmol EDTA, 1 mmol DTT, 1 mmol PMSF and 10% glycerol ("Buffer A"). Cells were lysed by sonication using a Fischer Model 300 Dismembrator and a microtip probe. Following centrifugation at 27,000×g, the supernatant was diluted to a total volume of 60 mL with Buffer A and loaded onto a 2.0×19 cm QAE-Sepharose column (1 mL/min, 4° C.), that had been equilibrated in Buffer A. The column was washed isocratically for 180 min and then eluted with a gradient eluent of 0-1.0M aqueous sodium chloride in Buffer A over 120 min. Enzymatic activity was measured by HPLC using the synthetic peptide Ser-Gln-Asn-Tyr-Pro-Ile-Val as described in Margolin et al., Biochem. Biophys. Res. Common., 167, 554-560 (1990); the production of the p1 peptide (Ser-Gln-Asn-Tyr) was measured.
The active fractions were combined, adjusted to […] 1.2M in ammonium sulfate, and applied to a 2.0×18 cm hexyl agarose column that had been equilibrated in Buffer A containing 1.2M ammonium sulfate. The sample was loaded at a flow rate of 1 mL/min at 4° C., washed with the equilibration buffer for 240 min (1 mL/min) and then eluted using a reverse linear gradient of 1.2-0M ammonium sulfate in Buffer A for 120 min at the same flow rate. The column was then washed isocratically in Buffer A for 120 min.
The active fractions were combined, concentrated to 10 mL using an Amicon stirred cell with a YM-10 membrane and then applied to a MonoS cation exchange column (1.0×10 cm) that had been equilibrated in Buffer A. The sample was loaded at a flow rate of 1 mL/min at 25° C. After washing isocratically for 30 min, the protease was eluted using a linear gradient of 0-0.45M aqueous sodium chloride in Buffer A over 40 min. The column was washed isocratically in Buffer A containing 0.45M aqueous sodium chloride for 30 minutes.
The active fractions were combined and concentrated to 200 μL using an Amicon stirred cell and a YM-10 membrane and then the protease was applied to a Superose 6 size exclusion column equilibrated in Buffer A containing 0.1M aqueous sodium chloride.
E. Fluorescence HIV-1 Protease Inhibitor Assay
The following buffers and solutions are used in the Fluorescence HIV-1 Protease Inhibitor Assay:
To each well of a round bottom, 96-well plate is added 20 μL of the Enzyme Solution followed by 10 μL of the compound to be evaluated in a 20% aqueous dimethylsulfoxide solution. Purified HIV-1 protease was obtained as described above. The resulting solution is incubated for one hour at room temperature and then 20 μL of a solution containing the substrate, prepared above, in MES-ALB buffer (1.5 μL/mL) is added to each well. The solutions are then incubated for 16 hours at room temperature and then each well is diluted with 150 μL of MES-ALB buffer.
To each well of a second round bottom, 96-well Pandex plate is added 25 uL of the Avidin Coated Beads Solution. Then, to each well is added 25 μL of the diluted incubation solutions, prepared above. The solutions are mixed thoroughly and the plates are loaded into a Pandex® machine, washed, evacuated and read. Sample detection was performed by excitation at 485 nm, reading the resulting epifluorescence at 535 nm.

What is called IC50 is the concentration at which inhibition is half-maximal. `Cc1ccc2ncccc2c1C(=O)N[C@@H](CSc1ccccc1)[C@H](O)CN1C[C@H]2CCCC[C@H]2C[C@H]1C(=O)NC(C)(C)C` [Example 38]: the IC50 was 25.2 nM.
On the same count and under the same terms, as for `Cc1c(C(=O)N[C@@H](Cc2ccccc2)[C@H](O)CN2C[C@H]3CCCC[C@H]3C[C@H]2C(=O)NC(C)(C)C)cc[nH]c1=O` [Example 16, [3S-(3R*,4aR*,8aR*,2'S*,3'R*)]-2-[2'-Hydroxy-3-phenylmethyl-4'-aza-5'-oxo-5'-(2"-oxo-3"-methyl-pyrid-4"-yl)pentyl]decahydroisoquinoline-3-N-t-butylcarboxamide], the figure is 613 nM.
On the same count and under the same terms, next, `Cc1cnccc1C(=O)N[C@@H](CSc1ccccc1)[C@H](O)CN1CCN(Cc2cccnc2)C[C@H]1C(=O)NC(C)(C)C` [Example 35, [2S-(2R*,2'S*,3'S*)]-1-[2'-Hydroxy-3'-phenylthiomethyl-4'-aza-5'-oxo-5'-[3"-methyl-pyrid-4"-yl)]pentyl]-4-(pyrid-3'"-ylmethyl)piperazine-2-N-t-butylcarboxamide]: 53.7 nM.
For orientation: pIC50 means −log10 of the IC50, conventionally taken in molar units. In turn, `Cc1c(O)cccc1C(=O)N[C@@H](Cc1ccccc1)[C@H](O)CN1CCCC[C@H]1C(=O)NC(C)(C)C` [Example 6, [2S-(2R*,2'S*,3'R*)]-1-[2'-Hydroxy-3'-phenylmethyl-4'-aza-5'-oxo-5'-(2"-methyl-3"-hydroxyphenyl)pentyl]piperidine-2-N-t-butylcarboxamide] had a pIC50 of 5.97.
Turning to `CC(C)(C)NC(=O)[C@@H]1C[C@@H]2CCCC[C@@H]2CN1C[C@@H](O)[C@H](Cc1ccccc1)NC(=O)c1c(Cl)ccc(O)c1Cl` [Example 17, [3S-(3R*,4aR*,8aR*,2'S*,3'R*)]-2-[2'-Hydroxy-3'-phenylmethyl-4'-aza-5'-oxo-5'-(2",6"-dichloro-3"-hydroxyphenyl)pentyl]decahydroisoquinoline-3-N-t-butylcarboxamide], the IC50 is 455 nM.
Same read-out and setting: as for `CC(C)(C)NC(=O)[C@@H]1C[C@@H]2CCCC[C@@H]2CN1C[C@@H](O)[C@H](Cc1ccccc1)NC(=O)c1cccc(Cl)c1Cl` [Example 14, [3S-(3R*,4aR*,8aR*,2'S*,3R*)]-2-[2'-Hydroxy-3'-phenylmethyl-4'-aza-5'-oxo-5'-(2",3"-dichlorophenyl)pentyl]decahydroisoquinoline-3-N-t-butylcarboxamide], the figure is 176 nM.
For the compound `Cc1c(NS(C)(=O)=O)cccc1C(=O)N[C@@H](Cc1ccccc1)[C@H](O)CN1C[C@H]2CCCC[C@H]2C[C@H]1C(=O)NC(C)(C)C` [Example 36, [3S-(3R*,4aR*,8aR*,2'S*,3'S*)]-2-[2'-Hydroxy-3'-phenylmethyl-4'-aza-5'-oxo-5'-[2"-methyl-3"-N-(methylsulfonyl)amino-phenyl)]pentyl]decahydroisoquinoline-3-N-t-butylcarboxamide], under “read-out: Fluorescence Assay IC50, […], room temperature, 16 hours with substrate”, the pIC50 is 6.99.
Turning to `Cc1c(O)cccc1C(=O)N[C@@H](Cc1ccccc1)[C@H](O)CN1CCC[C@H]1C(=O)NC(C)(C)C` [Example 4, [2S-(2R*,2'S*,3'R*)]-1-[2'-Hydroxy-3'-phenylmethyl-4'-aza-5'-oxo-5'-(2"-methyl-3"-hydroxyphenyl)pentyl]pyrrolidine-2-N-t-butylcarboxamide], the pIC50 is 5.52.
Regarding `CC(C)(C)NC(=O)[C@@H]1CN(Cc2cccnc2)CCN1C[C@@H](O)[C@H](CSc1ccccc1)NC(=O)c1cccc2ncccc12` [Example 34, [2S-(2R*,2'S*,3'S*)]-1-[2'-Hydroxy-3'-phenylthiomethyl-4'-aza-5'-oxo-5'-(quinolin-5"-yl)pentyl]-4-(pyrid-3'"-ylmethyl)piperazine-2-N-t-butylcarboxamide], the IC50 is 7.18 nM.
